This is an account of results in the METLIN SMRT retention time set (Domingo-Almenara et al. 2019).

This data set is described as follows: gradient 5% acetonitrile 3 min, to 50% in 2 min, to 85% in 15 min, held 3 min, 100 µL/min. To be noted: column: Zorbax Extend-C18 2.1 x 50 mm; eluents: water / acetonitrile, 0.1% formic acid. An outline of the steps: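 Standards, all pure, were combined into mixtures of ~100 molecules and run at 100 μL/min on a Zorbax Extend-C18 column (2.1 × 50 mm, 1.8 μm) with water and acetonitrile, each containing 0.1% formic acid. A coupled quadrupole time-of-flight mass spectrometer operated in positive and negative ionization mode. Retention time values come from computationally picked adduct peaks, each inspected manually.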
`O=C(NCC1(CO)CC1)NC(c1ccccc1)c1ccccc1` registered an RP-LC retention time of 706 s. For `CCCNC(=O)C1CCCN1C(=O)c1ccc(NC(=O)C(C)(C)C)cc1` (stereo not drawn) the value was 683 s; for `O=C(NCc1ccc(C(F)(F)F)cc1)c1cn2c(n1)CCCC2`, 646 s. For `COCC1(F)CCN(Cc2c(-c3ccc(C)cc3)nc3c(C)cccn23)CC1` the value was 608 s. For `COc1cccc(-c2noc(CCn3nc(-c4ccc(Cl)cc4)ccc3=O)n2)c1OC` the value was 1010 s; for `CCOC(=O)c1c(C)[nH]c(CCC(=O)Nc2ccc(C(C)=O)cc2)c1C`, 800 s; for `CCC1Oc2ccc(S(=O)(=O)N3CCC(C(=O)N4CCCCCC4)CC3)cc2NC1=O` (stereo not drawn), 842 s.

In turn, `Cc1ccccc1NC(=O)Nc1ccc2nncn2c1` came in with an RP-LC retention time of 668 s. On to `Cc1cccc(NC(=O)CSc2cc(N3CCCC(C)C3)ncn2)c1` (stereo not drawn), for which the RP-LC retention time was 1020 s. `COCCCNC(=O)N1CCC(C)(c2noc(C3CCOCC3)n2)CC1` had an RP-LC retention time of 654 s.

For `O=C(Cn1nc2c3cc(-c4ccc(F)cc4)nn3ccn2c1=O)N1CCN(c2ccc(F)cc2)CC1`, the RP-LC retention time turned out to be 920 s. Turning to `COc1ccc(NC(C)=O)cc1NC(=O)C1CC(=O)N(c2n[nH]c3ccccc23)C1` (stereo not drawn), the RP-LC retention time is 626 s. Take `CCSc1ccccc1C(=O)Nc1cc(C(C)(C)C)nn1CCO`: the RP-LC retention time was 781 s. For `O=C(NCc1ccc(C(F)(F)F)cc1)c1c(O)c2cccnc2n(-c2ccccc2)c1=O` the value was 1230 s; for `Cc1ccc2oc(-c3nnc(C(=O)NCCN4CCCCCC4)o3)c(C)c2c1`, 720 s. For `CN(C1CCc2nn(C)c(=O)n2CC1)S(=O)(=O)c1cccc2cccnc12` (stereo not drawn) the value was 671 s; for `O=c1ccc(N2CCCN(S(=O)(=O)c3ccc(Cl)cc3)CC2)nn1-c1ccccc1`, 868 s. `CNC(=O)c1csc(NC(=O)c2cc(Cl)ccc2Cl)n1` showed an RP-LC retention time of 685 s. Under `O=C(CN1CCN(c2nccn2-c2ccccc2F)CC1)Nc1ccc(F)cc1F` stands 562 s; under `Cc1nnc(NC(=O)c2ccc(OCc3nc(-c4ccco4)cs3)cc2)s1`, 815 s. For `O=C1[C@H]2CN(Cc3ccc(Cl)c(F)c3)C[C@H]2C(=O)N1Cc1ccc2c(c1)OCO2` the value was 953 s. `Cc1cccc(OCC(=O)c2ccc3c(c2)N(C(C)C(=O)N2CCOCC2)C(=O)CO3)c1C` (stereo not drawn): the RP-LC retention time worked out at 877 s. With `CCN(CC)CCNC(=O)C1CCN(c2ccc(-c3cccs3)nn2)CC1`, the RP-LC retention time was determined as 556 s. For `CC(C)CN1CCn2cc(C(=O)NCc3ccc(F)cc3Cl)nc2C1` the value was 646 s. For `CCC(C)N(CCNC(=O)Cc1noc2ccc(C)cc12)Cc1ccco1` (stereo not drawn) the value was 682 s; for `COc1ccc(CNC(=O)CSc2nccc(N3CCN(c4cc(C)ccc4C)CC3)n2)cc1`, 861 s. For `O=C(Nc1ccccc1)c1c(O)c2cccnc2n(-c2cccc(F)c2)c1=O` the value was 1210 s; for `COc1ccc(-c2ncc3c(n2)CCN(C(=O)Nc2ccccc2OC)C3)cc1`, 905 s; for `CNC(=O)c1c(NC(=O)c2cccc(Cl)c2)sc2c1CCC2`, 1160 s. In turn, `CCCC(=O)NC1CCN(c2ccc(C)cc2)C1=O` (stereo not drawn) had an RP-LC retention time of 714 s. For the compound `Cc1ccc(N(C)C(=O)C2CCCN(S(=O)(=O)c3cc(-c4noc(C)n4)cs3)C2)cc1` (stereo not drawn), the RP-LC retention time is 992 s. Under `O=S(=O)(c1cccnc1)N1CC(c2nc(CCOCC3CCOCC3)no2)C1` stands 710 s. In turn, `COc1ccc(-c2noc(Cc3nnc(-c4ccc(C)c(C)c4)o3)n2)cc1OC` had an RP-LC retention time of 997 s.
